ChEMBL document CHEMBL1201862, “PubChem BioAssay data set” (2004)
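Where inhibition never reached the appropriate level, the endpoint shown equals the highest concentration tested. Otherwise, values were interpolated linearly from a five-concentration, 48-hour dose response in 96-well plates. GI50: concentration for 50% inhibition of growth.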 The source made the active and inactive calls. Cut-off read from the data, not from the text of the source: active = GI50 up to about 1.1 µM and inactive = higher.

What was measured:
Experiment in all cases: NCI tumour cell line growth inhibition, 48 h
[1] = system: A498
[2] = system: A549
[3] = system: ACHN
[4] = system: COLO 205
[5] = system: EKVX
[6] = system: HOP-62
[7] = system: HT-29
[8] = system: K562
[9] = system: NCI-H460
[10] = system: NCI-H522
[11] = system: OVCAR-3
[12] = system: RPMI-8226
[13] = system: SF-268
[14] = system: SF-539
[15] = system: SN12C
[16] = system: UACC-257
[17] = system: UO-31
[18] = system: OVCAR-4
[19] = system: SK-MEL-28
[20] = system: RXF 393

| SMILES | GI50 [1] | GI50 [2] | GI50 [3] | GI50 [4] | GI50 [5] | GI50 [6] | GI50 [7] | GI50 [8] | GI50 [9] | GI50 [10] | GI50 [11] | GI50 [12] | GI50 [13] | GI50 [14] | GI50 [15] | GI50 [16] | GI50 [17] | GI50 [18] | GI50 [19] | GI50 [20] |
| --- | --- | --- | --- | --- | --- | --- | --- | --- | --- | --- | --- | --- | --- | --- | --- | --- | --- | --- | --- | --- |
| N#CN=C(N(Cc1ccccc1)Cc1ccccc1)N(Cc1ccccc1)Cc1ccccc1 | 14.7 µM (inactive) | 6.44 µM (inactive) | 4.53 µM (inactive) | 11.7 µM (inactive) | 7.11 µM (inactive) | > 100 µM (inactive) | 6.22 µM (inactive) | 4.36 µM (inactive) | 3.88 µM (inactive) | 4.69 µM (inactive) | 10.9 µM (inactive) | 3.88 µM (inactive) | > 100 µM (inactive) | 46.7 µM (inactive) | 23.4 µM (inactive) | 8.47 µM (inactive) | 5.64 µM (inactive) |  |  |  |
| CCOP(=O)(OCC)C(Cc1c[nH]c2ccccc12)C(=O)O (stereo not given) | > 100 µM (inactive) | > 100 µM (inactive) | > 100 µM (inactive) | > 100 µM (inactive) |  | > 100 µM (inactive) | > 100 µM (inactive) | > 100 µM (inactive) | > 100 µM (inactive) | > 100 µM (inactive) | > 100 µM (inactive) | > 100 µM (inactive) |  |  | > 100 µM (inactive) | > 100 µM (inactive) | > 100 µM (inactive) | > 100 µM (inactive) | > 100 µM (inactive) |  |
| Cc1cc(O)nc(NN2C(Cl)C(=O)C2c2cccc([N+](=O)[O-])c2)n1 (stereo not given) |  | 76 µM (inactive) | 29.2 µM (inactive) | 22.7 µM (inactive) | 63.4 µM (inactive) | 31.4 µM (inactive) | 19.6 µM (inactive) | 18.3 µM (inactive) | 26.3 µM (inactive) |  | 14.8 µM (inactive) | 13.7 µM (inactive) | 35.2 µM (inactive) |  | 18.1 µM (inactive) | 29 µM (inactive) | 36.6 µM (inactive) | 23.6 µM (inactive) | 17.1 µM (inactive) | 10 µM (inactive) |
| CCOC(=O)C1S(=O)(=O)OCCOS1(=O)=O |  | > 100 µM (inactive) |  | > 100 µM (inactive) | > 100 µM (inactive) | > 100 µM (inactive) | > 100 µM (inactive) | > 100 µM (inactive) |  | > 100 µM (inactive) | > 100 µM (inactive) | > 100 µM (inactive) | > 100 µM (inactive) | > 100 µM (inactive) | > 100 µM (inactive) | > 100 µM (inactive) | > 100 µM (inactive) | > 100 µM (inactive) | > 100 µM (inactive) |  |
| CC(=O)OCCCCn1cnc2c(Cl)nc(Nc3ccccc3)nc21 | > 100 µM (inactive) | > 100 µM (inactive) | > 100 µM (inactive) | > 100 µM (inactive) | > 100 µM (inactive) | > 100 µM (inactive) | > 100 µM (inactive) | > 100 µM (inactive) | > 100 µM (inactive) | 16.5 µM (inactive) | > 100 µM (inactive) | > 100 µM (inactive) |  | > 100 µM (inactive) | > 100 µM (inactive) | > 100 µM (inactive) | > 100 µM (inactive) | > 100 µM (inactive) | > 100 µM (inactive) |  |
| O=c1oc2ccccc2cc1-c1cn2cc(Cl)ccc2n1 |  | 0.719 µM (active) | 0.586 µM (active) | 0.865 µM (active) | 21.6 µM (inactive) | 0.714 µM (active) | 7.11 µM (inactive) | 0.495 µM (active) | 0.488 µM (active) | 0.104 µM (active) | 0.497 µM (active) | 0.532 µM (active) | 1.44 µM (inactive) | 1.48 µM (inactive) | 2.98 µM (inactive) | 4.58 µM (inactive) | 1.32 µM (inactive) | 2.46 µM (inactive) | 2.08 µM (inactive) | 2.28 µM (inactive) |
| CCOC(=O)c1c(-c2ccccc2)c(C(OC(c2ccccc2)c2c(-c3ccccc3)c(C(=O)OCC)n3ccccc23)c2ccccc2)c2ccccn12 (stereo not given) |  | > 100 µM (inactive) | > 100 µM (inactive) | > 100 µM (inactive) | > 100 µM (inactive) | > 100 µM (inactive) | > 100 µM (inactive) | > 100 µM (inactive) | > 100 µM (inactive) | > 100 µM (inactive) | > 100 µM (inactive) | > 100 µM (inactive) | > 100 µM (inactive) |  | > 100 µM (inactive) | > 100 µM (inactive) | > 100 µM (inactive) | > 100 µM (inactive) | > 100 µM (inactive) | > 100 µM (inactive) |
| O=C1CSC(c2ccc(Cl)cc2Cl)N1c1ccc(Oc2ccc(Cl)cc2)c(Cl)c1 (stereo not given) |  | 27 µM (inactive) | 35.7 µM (inactive) | 25.5 µM (inactive) | 23.3 µM (inactive) | 23.8 µM (inactive) | 16.4 µM (inactive) | 26.2 µM (inactive) | 27.4 µM (inactive) | 10.4 µM (inactive) | 17.5 µM (inactive) | 13.8 µM (inactive) | 16 µM (inactive) | 21.6 µM (inactive) | 37.7 µM (inactive) | 37.1 µM (inactive) | 7.08 µM (inactive) | 23.8 µM (inactive) | 39.4 µM (inactive) |  |
| Cc1c2c(n(CCN(C)C)c1C)NN=C(C#N)S2(=O)=O |  | > 100 µM (inactive) | > 100 µM (inactive) | > 100 µM (inactive) | > 100 µM (inactive) | > 100 µM (inactive) | > 100 µM (inactive) | > 100 µM (inactive) | > 100 µM (inactive) |  | > 100 µM (inactive) | > 100 µM (inactive) | > 100 µM (inactive) | > 100 µM (inactive) | > 100 µM (inactive) | > 100 µM (inactive) | > 100 µM (inactive) | > 100 µM (inactive) | > 100 µM (inactive) |  |
| O=c1cc(NNc2ccccc2)[nH]c(=O)[nH]1 | > 100 µM (inactive) | > 100 µM (inactive) | 13.3 µM (inactive) | 17.9 µM (inactive) | > 100 µM (inactive) | 85.3 µM (inactive) | 22.1 µM (inactive) | 24.1 µM (inactive) | 27.5 µM (inactive) | 20.5 µM (inactive) | 17.2 µM (inactive) | 11.1 µM (inactive) | 25.7 µM (inactive) | 71.6 µM (inactive) | 25.9 µM (inactive) | 16.1 µM (inactive) |  | 16 µM (inactive) | 11.2 µM (inactive) |  |
| Cc1ccc2c(O)cc(-c3ccccc3)nc2n1 |  | 0.221 µM (active) | 0.845 µM (active) | 0.0378 µM (active) | 1.74 µM (inactive) | 0.366 µM (active) | 0.0378 µM (active) | 0.0366 µM (active) | 0.0574 µM (active) | 0.0532 µM (active) | 0.0346 µM (active) | 0.115 µM (active) | 1.56 µM (inactive) | 0.191 µM (active) | 0.416 µM (active) | 0.285 µM (active) | 0.593 µM (active) | 5.24 µM (inactive) | 0.181 µM (active) | 0.127 µM (active) |
| O=C(c1cccs1)N(C(=S)N1CCN(c2ccccc2)CC1)c1ccccc1 |  | > 100 µM (inactive) | > 100 µM (inactive) | > 100 µM (inactive) |  | > 100 µM (inactive) | > 100 µM (inactive) | > 100 µM (inactive) | > 100 µM (inactive) | > 100 µM (inactive) | > 100 µM (inactive) | > 100 µM (inactive) | > 100 µM (inactive) | > 100 µM (inactive) | > 100 µM (inactive) | > 100 µM (inactive) | > 100 µM (inactive) | > 100 µM (inactive) | > 100 µM (inactive) | > 100 µM (inactive) |
| CCOC(=O)C1=C(c2ccccc2)N(C)c2ccccc2S1 |  | 35.6 µM (inactive) | 24.1 µM (inactive) | 31.3 µM (inactive) | 32 µM (inactive) | 36.4 µM (inactive) | 17.4 µM (inactive) | 36.8 µM (inactive) | 24.7 µM (inactive) | 25.6 µM (inactive) | 36 µM (inactive) | 17 µM (inactive) | 29.4 µM (inactive) | 37.2 µM (inactive) | 23.9 µM (inactive) | 31.6 µM (inactive) | 22.4 µM (inactive) | 30.1 µM (inactive) | 38.9 µM (inactive) |  |
| Cc1ccc([N+](=O)[O-])cc1S(=O)(=O)Nc1ccc(C2=NN(c3ccc([N+](=O)[O-])cc3[N+](=O)[O-])C(c3ccccc3)C2)cc1 (stereo not given) |  | 19.1 µM (inactive) | 17.6 µM (inactive) | 19.2 µM (inactive) | 18.6 µM (inactive) | 15.5 µM (inactive) | 16.1 µM (inactive) | 16 µM (inactive) |  | 10.1 µM (inactive) | 14.2 µM (inactive) | 9.27 µM (inactive) | 13.1 µM (inactive) | 20.3 µM (inactive) | 17.2 µM (inactive) | 16.2 µM (inactive) | 14.8 µM (inactive) | 19.8 µM (inactive) | 34.5 µM (inactive) | 14.8 µM (inactive) |
| CSC1=Nc2ccccc2N(C)c2c1c(-c1ccccc1)nn2C |  | 50.4 µM (inactive) | 29.9 µM (inactive) | 38 µM (inactive) | 65.5 µM (inactive) |  | 21.7 µM (inactive) | 17.8 µM (inactive) | 21.9 µM (inactive) | 7.4 µM (inactive) | 15.2 µM (inactive) | 12.7 µM (inactive) | 17 µM (inactive) | 63.7 µM (inactive) | 54.5 µM (inactive) | 73.1 µM (inactive) |  | 43.1 µM (inactive) | > 100 µM (inactive) | 15.6 µM (inactive) |
| CC(NC(=O)c1ccc(OP(=O)(OCC2=CC(=O)c3ccccc3C2=O)N(C)CCCCCl)cc1)c1ccc(OCC2CCCCC2)c(C(N)=O)c1 (stereo not given) |  | 1.67 µM (inactive) | 12.7 µM (inactive) | 7.28 µM (inactive) |  | 18 µM (inactive) | 15.1 µM (inactive) | 17.4 µM (inactive) | 11 µM (inactive) | 11.8 µM (inactive) | 1.41 µM (inactive) | 11.2 µM (inactive) | 13.4 µM (inactive) | 15.2 µM (inactive) | 13.4 µM (inactive) | 4.59 µM (inactive) | 10.2 µM (inactive) |  | 14.2 µM (inactive) |  |
